Read-outs that look alike come from different tables or passages of the source.
What was measured:
Assay type in all cases: cell-based, human
HL-60 = test: Cytotoxicity test (ViaLight Plus cell proliferation) on HL-60; conditions: 72 hours' incubation, cell viability vs 0.5% DMSO control; for IC50: HL-60, 72 h, read-out: EC50 HL-60
Excerpt: (§1) The effects of the compounds of the invention on the proliferation of cancer cells were studied on different human cancer cell lines of different tissue origin (MCF-7: breast cancer, MCF-7/adr adriamycin-resistant breast cancer, HL-60: acute promyelocytic leukaemia, HL-60/R10: doxorubicin-resistant acute promyelocytic leukaemia, HT29: colon adenocarcinoma, Mia Paca2: pancreatic tumour, Panc-1: pancreatic exocrine tumour, SK-OV-3: cisplatin- and adriamycin resistant ovarian cancer). The cancer cells used for this study were incubated at 37° C. in the presence of one of the compounds of the invention added to the culture medium at different concentrations.
(§2) The cancer cell lines were obtained from ATCC (American Type Culture Collection) for MCF-7, from Hôpital de la Pitié Salpetrière for MCF-7/adr and from Oncodesign (Dijon, France) for HL-60, HL-60/R10, HT29, MiaPaCa2, Panc-1 and SK-OV-3. They were cultured in RPMI 1640 medium containing 2 mM L-Glutamine supplemented with 10% foetal calf serum (Lonza; Verviers, Belgium). All the cell lines were held in culture at 37° C. in a humid atmosphere containing 5% CO2. Cell proliferation was assessed using the ViaLight® Plus Assay Kit (Lonza; Verviers, Belgium) following the manufacturer's instructions. The cells were seeded in 96-well culture plates compatible with luminescence read-off (white plates with transparent bottom) in a proportion of 5 000 to 10 000 cells per well in 100 μl of culture medium. After a pre-incubation time of 24 hours at 37° C., the compounds of the invention dissolved in dimethylsulfoxide (DMSO) were individually added to each well in a proportion of 0.5 μl per well. After 72 hours' incubation at 37° C. in a humid atmosphere containing 5% CO2, 50 μl of lysis buffer were added to each well and 15 minutes later 100 μl of ATP measuring agent were added. The plates were read under a luminometer to evaluate cell viability. The data obtained was processed by computer to obtain the EC50 value i.e. the concentration value of each of the compounds which induces 50% cell viability compared with a control value (0.5% DMSO alone).

MCF-7 = test: Cytotoxicity test (ViaLight Plus cell proliferation) on MCF-7; conditions: 72 hours' incubation, cell viability vs 0.5% DMSO control; for IC50: Homo sapiens, MCF7, 72 h, read-out: EC50 MCF-7
Excerpt: as §1, §2

MCF-7/adr = test: Cytotoxicity test (ViaLight Plus cell proliferation) on MCF-7/adr; conditions: adriamycin-resistant line, 72 hours' incubation, cell viability vs 0.5% DMSO control; for IC50: Homo sapiens, NCI/ADR-RES, 72 h, read-out: EC50 MCF-7/adr
Excerpt: as §1, §2

HL-60/R10 = test: Cytotoxicity test (ViaLight Plus cell proliferation) on HL-60/R10; conditions: doxorubicin-resistant line, 72 hours' incubation, cell viability vs 0.5% DMSO control, read-out: EC50 HL60/R10; for IC50: HL-60, 72 h
Excerpt: as §1, §2

Molecule	EC50 (HL-60) [nM]	EC50 (MCF-7) [nM]	EC50 (MCF-7/adr) [nM]	EC50 (HL-60/R10) [nM]	IC50 (HL-60; Homo sapiens) [nM]	IC50 (MCF-7) [nM]	IC50 (MCF-7/adr) [nM]	IC50 (HL-60/R10; Homo sapiens) [nM]	EC50 (HL-60; Homo sapiens, HL-60) [nM]	EC50 (HL-60/R10; Homo sapiens, HL-60) [nM]
CC(C)[C@@H]1CN(C(=O)C(c2ccc(F)cc2)N(C(=O)CCl)c2ccc(Oc3ccccc3)cc2)CCN1 (single isomer, unassigned) [I-4 dia1]	648	315	13	4	–	–	–	–	–	–
Cc1cc(Oc2ccccc2)ccc1N(C(=O)CCl)C(C(=O)N1C[C@@H](C)N(C(=O)OC(C)(C)C)[C@@H](C)C1)c1ccc(F)cc1 (stereo partly shown) [Example I-10]	–	–	–	–	641	2500	151	131	–	–
O=C(C(c1cccs1)N(C(=O)CCl)c1ccc(Oc2ccccc2)cc1)N1CCN2CCC[C@H]2C1 (stereo partly shown) [Example I-34]	–	–	–	–	1120	1780	100	30	–	–
CC[C@H]1CN(C(=O)C(c2ccc(F)cc2)N(C(=O)CCl)c2ccc(Oc3ccccc3)cc2C)CCN1 (single isomer, unassigned; dia2) [I-17 dia2]	1600	1990	152	49	–	–	–	–	–	–
CC1CN(C(=O)C(c2cccs2)N(C(=O)CCl)c2ccc(Oc3ccccc3)cc2)CC(C)N1 (stereo not shown) [Example I-30]	–	–	–	–	202	1010	44	10	–	–
CC1CN(C(=O)C(c2cccs2)N(C(=O)CCl)c2cccc(C(F)(F)F)c2)CC(C)N1C(=O)OCc1ccccc1 (stereo not shown) [Example I-29]	–	–	–	–	939	1030	54	38	–	–
CC[C@@H]1CN(C(=O)C(c2ccc(F)cc2)N(C(=O)CCl)c2ccc(Oc3ccccc3)cc2C)CCN1 (single isomer, unassigned; dia2) [I-18 dia2]	352	591	152	44	–	–	–	–	–	–
Cc1cc(Oc2ccccc2)ccc1N(C(=O)CCl)C(C(=O)N1CCN[C@H](C)C1)c1ccc(F)cc1 (stereo partly shown) [Example I-13]	–	–	–	–	1990	2500	532	88	1990	88
Cc1cc(Oc2ccccc2)ccc1N(C(=O)CCl)C(C(=O)N1CCN[C@H](C(C)C)C1)c1ccc(F)cc1 (single isomer, unassigned) [I-8 dia2]	1740	2410	477	312	–	–	–	–	–	–
O=C(C(c1cccs1)N(C(=O)CCl)c1ccc(Oc2ccccc2)cc1)N1CC2CC1CN2 (stereo not shown) [Example I-35]	–	–	–	–	300	632	863	249	–	–
CC[C@H]1CN(C(=O)C(c2cccs2)N(C(=O)CCl)c2ccc(Oc3ccccc3)cc2)CCN1 (stereo partly shown) [Example I-39]	–	–	–	–	1810	776	52	9	–	–
Cc1cc(Oc2ccccc2)ccc1N(C(=O)CCl)C(C(=O)N1CCN(C(=O)OC(C)(C)C)[C@@H](C)C1)c1ccc(F)cc1 (stereo partly shown) [Example I-9]	–	–	–	–	771	2500	108	99	–	–
C[C@@H]1CN(C(=O)C(c2ccc(F)cc2)N(C(=O)CCl)c2ccc(Oc3ccccc3)cc2)CCN1 (single isomer, unassigned; dia2) [I-22 dia2]	1150	430	34	18	–	–	–	–	–	–
CC1CN(C(=O)C(c2cccs2)N(C(=O)CCl)c2ccc(Oc3ccccc3)cc2)CC(C)N1C(=O)OCc1ccccc1 (stereo not shown) [Example I-31]	–	–	–	–	766	2500	89	64	–	–
CC(C)[C@@H]1CN(C(=O)C(c2ccc(F)cc2)N(C(=O)CCl)c2ccc(Oc3ccccc3)cc2)CCN1 (single isomer, unassigned) [I-4 dia2]	1320	863	166	62	–	–	–	–	–	–
C[C@H]1CN(C(=O)C(c2ccc(F)cc2)N(C(=O)CCl)c2ccc(Oc3ccccc3)cc2)CCN1 (single isomer, unassigned; dia2) [I-21 dia2]	630	869	10	8	–	–	–	–	–	–
C[C@@H]1CN(C(=O)C(c2ccc(F)cc2)N(C(=O)CCl)c2ccc(Oc3ccccc3)cc2)CCN1 (single isomer, unassigned; dia1) [I-22 dia1]	2000	569	131	17	–	–	–	–	–	–
CC[C@@H]1CN(C(=O)C(c2ccc(F)cc2)N(C(=O)CCl)c2ccc(Oc3ccccc3)cc2)CCN1C(=O)OC(C)(C)C (single isomer, unassigned; dia1) [I-20 dia1]	196	1570	73	80	–	–	–	–	–	–
tert-butyl ester of 4-[2-[(2-chloro-acetyl)-(4-phenoxy-phenyl)-amino]-2-(4-fluoro-phenyl)-acetyl]-(S)-2-isopropyl-piperazine-1-carboxylic acid [I-1 dia2]	824	1300	39	23	–	–	–	–	–	–
Cc1cc(OC(C)C)ccc1N(C(=O)CCl)C(C(=O)N1CCN[C@@H](C(C)C)C1)c1ccc(F)cc1 (single isomer, unassigned; dia2) [I-26 dia2]	630	869	10	8	–	–	–	–	–	–
Cc1cc(OC(F)(F)F)ccc1N(C(=O)CCl)C(C(=O)N1CCN[C@@H](C(C)C)C1)c1ccc(F)cc1 (single isomer, unassigned; dia1) [I-27 dia1]	2000	569	131	17	–	–	–	–	–	–
Cc1cc(Oc2ccccc2)ccc1N(C(=O)CCl)C(C(=O)N1CCN(C(=O)OC(C)(C)C)C(C(=O)NCc2ccccc2)C1)c1cccs1 (single isomer, unassigned; dia1) [I-53 dia1]	1980	2060	462	645	–	–	–	–	–	–
Cc1cc(Oc2ccccc2)ccc1N(C(=O)CCl)C(C(=O)N1CCN[C@@H](C(C)C)C1)c1ccc(F)cc1 (single isomer, unassigned) [I-7 dia1]	–	–	618	604	2500	2500	–	–	–	–
Cc1cc(Oc2ccccc2)ccc1N(C(=O)CCl)C(C(=O)N1CCN(C(=O)OCc2ccccc2)[C@H](C)C1)c1cccs1 (stereo partly shown) [Example I-37]	–	–	–	–	967	2500	156	154	–	–
Cc1cc(Oc2ccccc2)ccc1N(C(=O)CCl)C(C(=O)N1CCN[C@@H](C)C1)c1ccc(F)cc1 (stereo partly shown) [Example I-12]	–	–	–	–	2320	1790	421	82	2320	82
tert-butyl ester of 4-[-2-[(2-chloro-acetyl)-(4-phenoxy-phenyl)-amino]-2-(4-fluoro-phenyl)-acetyl]-(R)-2-isopropyl-piperazine-1-carboxylic acid [I-2 dia1]	728	2090	49	40	–	–	–	–	–	–
Cc1cc(Oc2ccccc2)ccc1N(C(=O)CCl)C(C(=O)N1CCN(C(=O)OC(C)(C)C)[C@H](C)C1)c1ccc(F)cc1 (stereo partly shown) [Example I-11]	–	–	–	–	939	2500	102	68	–	–
Cc1cc(Oc2ccccc2)ccc1N(C(=O)CCl)C(C(=O)N1CCN[C@H](C(C)C)C1)c1ccc(F)cc1 (single isomer, unassigned) [I-8 dia1]	–	–	148	54	2030	1740	–	–	–	–
C[C@H]1CN(C(=O)C(c2ccc(F)cc2)N(C(=O)CCl)c2ccc(Oc3ccccc3)cc2)CCN1 (single isomer, unassigned; dia1) [I-21 dia1]	2450	1950	93	13	–	–	–	–	–	–
C[C@@H]1CN(C(=O)C(c2cccs2)N(C(=O)CCl)c2ccc(Oc3ccccc3)cc2)CCN1C(=O)OCc1ccccc1 (stereo partly shown) [Example I-36]	–	–	–	–	372	2500	24	28	–	–
